What was measured:
[1] = test system: LCMV-specific CD8+ T cells; type: in vivo, C57BL/6 mice; settings: treatment followed by anti-PD-L1
[2] = test system: Dysf. CD8+ T cells; experiment: reprogramming treatment of Dysf. (chronic TCR plus TGFβ1) human CD8+ T cells; type: cell-based
Experimental: On day 7, viable CD8+ T cells were FACS-purified using the Sony MA900 cell sorter. Purified CD8+ T cells were then continuously stimulated in plates coated with anti-CD3 only (5 ug/ml). Media was replenished every 2-3 days, and cells were incubated at 37 C and 5% CO2 throughout the duration of the experiment. Human TGFβ1 (5 ng/ml, Peprotech) was added to the media starting on day 7. Treatment with RepSox (25 μM) and SB4 (10 μM) (MedChemExpress LLC) or vehicle control (DMSO, ThermoFisher) were added to the media starting on day 14 or 21. Vitamin C (100 μM, MedChemExpress LLC) was added to the media starting on day 21. For the acute TCR stimulation condition, anti-CD3 was no longer added to the media starting on day 7. For recovery experiments in FIG. 16 and FIGS. 22 and 26, CD8+ T cells were rested from TCR stimulation and TGFβ1 starting on day 28 for 7-14 days in T cell media containing recombinant human IL-15 only (10 ng/ml).
(§1) On days 7, 14, 21, and 28 (and day 35 and 42 for recovery experiments), human CBMCs were stimulated with PMA/Ionomycin (Cell Stimulation Cocktail plus protein transport inhibitors, eBioscience) for 3 hours at 37° C., 5% CO2. Incubation was followed immediately by antibody intracellular staining for flow cytometry.
Human CBMCs from ex vivo stimulation experiments (acute or chronic TCR, and chronic TCR+TGFβ1) were labeled with 5(6)-Carboxyfluorescein diacetate N-succinimidyl ester (CFSE) (1 μM, Sigma) by staining in PBS for 7 minutes at room temperature, followed by quenching with 20% FBS. Proliferation was tracked on days 35 and 42 by assessing CFSE fluorescence via flow cytometry. Each peak of CFSE fluorescence signal represents one cell division cycle.

[3] = test system: B16-F10-LCMV-GP tumor; type: in vivo, C57BL/6 mice; settings: therapy initiated after tumor development, i.p. every 2 days, through day 17
[4] = test system: P14 CD8 T cells; experiment: in-vitro co-culture of P14 CD8 T cells with CT2A-gp33 tumor cells (Example 1); type: cell-based, mouse
Excerpt: To study their epigenetic (re)programming, we developed a novel in-vitro model of CD8 T cell exhaustion. First, we optimized conditions for in-vitro co-culture of gp33-expressing murine brain tumor cells (CT2A-gp33) and TCR transgenic gp33-specific CD8 T cells (P14 cells). We were able to enforce differentiation of anti-tumor CD8 T cells under their persistent TCR stimulation by repeated exposure to the tumor antigen and tumor-derived factors, such as TGFβ1. […] However, with prolonged exposure to the tumor antigen, the effector CD8 T cells progressively lose cytokine production and tumor killing activity (FIGS. 8A, 8B, and 8C).
To assess the impact of TGFβ1 signaling on the progression of CD8 T cells toward dysfunction, we treated co-cultures with TGFβ1 or RepSox (also known as E-616452) (2-(3-(6-Methylpyridine-2-yl)-1H-pyrazol-4-yl)-1,5-naphthyridine) as shown in the formula: […]
RepSox is a potent selective inhibitor of the TGFβ type 1 receptor (ALK5)—for 11 days after effector differentiation was complete (day 6).
We also examined the impact of BMP-2/4 signaling on RepSox-treated P14 CD8 T cells. […] Taken together, our findings indicate that TGFβ1-signaling not only accelerates the development of T cell dysfunction, but also maintains silencing of lymphoid homing markers on CD8 T cells. Importantly, our findings support the feasibility of using this novel in-vitro model as a tractable tool that can guide our in-vivo work by providing first-line mechanistic studies.

[5] = test system: human CD8+ T cells; experiment: whole-genome bisulfite sequencing of human CD8+ T cells; type: cell-based
Experimental: Human CD8+ T cells were sorted on days 0 (naïve), 7, and 28, and genomic DNA was extracted and bisulfite-treated to convert unmethylated cytosine to uracil residues using the EZ DNA Methylation-Direct Kit (Zymo). DNA libraries were prepared using Swift Accel-NGS® D Methyl-Seq DNA Library Kit according to the manufacturer's protocol. The libraries were purified by the AMPureXP Beads followed by QC using Qubit method, and the purified DNA was captured on an Illumina flow cell for cluster generation. Libraries were sequenced on the NovaSeq-S2 platform following the manufacturer's protocols. Sequencing data were aligned to the Hg38 genome using BSMAP. Adapter were trimmed from FASTQ sequences (trimglore) and mapped to the hg38 genome using the BSMAP v. 2.74 software. CpGs were extracted by the methratio.py in the BSMAP package. Differential analysis of CpG methylation among the datasets was determined with a Bayesian hierarchical model to detect regional methylation differences with at least three CpG site. Differentially methylated regions (DMRs) were identified using Bioconductor package DSS and custom R scripts with a threshold of 30% change in methylation ratio and P-value <0.01 with at least 10 reads per CpG site as a cutoff.

[6] = test system: human CD8+ T cells; experiment: RNA-sequencing of human CD8+ T cells; type: cell-based
Experimental: RNA was isolated using PicoPure™ RNA Isolation Kit (Applied Biosystems) from frozen cell pellets of human CD8+ T cells that were FACS-purified from days 0 (naïve), 7, and 28. Following the kit protocol. Partek Flow was used for RNA-seq analysis. In brief, pre-alignment QC/QA analysis was performed on the FASTQ files, followed by read alignment on human whole genome hg38 using STAR. The aligned reads were quantified to the hg38 RefSeq Transcripts 98 using the Quantify to annotation model on Partek and gene counts were filtered (exclude features where maximum <50.0). Filtered gene counts were normalized using median ratio for DESeq2 analysis to measure differential gene expression among different populations of CD8+ T cells. Differentially expressed genes (DEGs) were identified for genes showing fold change ≥2 and p-value 0.05.

[7] = test system: human CD8+ T cells; experiment: BMP4 agonist treatment of human CD8+ T cells under chronic strong TCR stimulation; type: cell-based
Excerpt: To determine whether activating the SMAD1/5-dependent pathway attenuates a progression of chronically stimulated T cells to dysfunction, we augmented SMAD1/5-signaling using SB4 (2-[[(4-Bromophenyl)methyl]thio]benzoxazole), as shown in the formula: […]
SB4 is a selective small molecule BMP4 agonist (BMP4a) that stabilizes SMAD1/5 phosphorylation—in human CD8+ T cells under chronic strong TCR stimulation (FIG. 15a). […] CD39, CD103, and CD101 (FIG. 15e-i). Importantly. […] Taken together, these findings reveal a novel role for BMP4 signals in reversing exhaustion features and enhancing the survival of chronically stimulated CD8+ T cells.
For “Weak TCR” stimulation, 30 ng/ml of purified monoclonal anti-human CD3 (clone: OKT3; BioLegend) was continuously added onto the seeded CBMCs to provide TCR stimulation plus natural costimulation via CD80/CD86 on Fc-expressing CBMCs that survive in the first few days. For “Strong TCR” stimulation setting, flat-bottom plates were coated with purified monoclonal anti-human CD3 (5 ug/ml) and anti-human CD28 (1 ug/ml) (clone: CD28.2; BioLegend) at 4° C. overnight, then CMBCs were isolated and seeded in complete T cell medium as described above on day 0. On day 7, viable CD8+ T cells were FACS-purified using the Sony MA900 cell sorter. Purified CD8+ T cells were then continuously stimulated in plates coated with anti-CD3 only (5 ug/ml). Media was replenished every 2-3 days, and cells were incubated at 37 C and 5% CO2 throughout the duration of the experiment. Human TGFβ1 (5 ng/ml, Peprotech) was added to the media starting on day 7. […] Vitamin C (100 μM, MedChemExpress LLC) was added to the media starting on day 21. For the acute TCR stimulation condition, anti-CD3 was no longer added to the media starting on day 7. For recovery experiments in FIG. 16 and FIGS. 22 and 26, CD8+ T cells were rested from TCR stimulation and TGFβ1 starting on day 28 for 7-14 days in T cell media containing recombinant human IL-15 only (10 ng/ml).
as §1

[8] = monotherapy, in the absence of TGFβ R1 blocker

Compound: Cc1cccc(-c2n[nH]cc2-c2ccc3ncccc3n2)n1 [RepSox, 2-(3-(6-Methylpyridine-2-yl)-1H-pyrazol-4-yl)-1,5-naphthyridine]
- dysfunctional CD8+ T cell responses during anti-PD-L1 treatment [1]: did not improve
- effector molecules (IFNγ, TNFα, CD107a, T-bet) ([2]; RepSox alone, day 28): restored
- surface markers associated with terminal dysfunction (CD101, PD-1, LAG3) ([2]; RepSox alone, day 28): downregulated
- effector cytokine production ([2]; sorted most dysfunctional subset (CD107a low CD11a low), RepSox 2 weeks): significantly recovered
- tumor control [3]: modest tumor control
- CD62L (L-selectin) expression ([4]; P14 CD8 T cells): restored
- levels of PD-1 ([4]; P14 CD8 T cells): maintained high levels
- tumor killing activity ([4]; persistently stimulated P14 cells, treatment from day 6): preserved
- effector function (expression of IFNγ, T-bet and Gzmb) ([4]; relative to Day 6-effector CD8 T cells): boosted the effector function
- DNA methylation patterns in Dysf. CD8+ T cells ([5]; RepSox alone, day 28): induced distinct methylation patterns
- expression of effector function-related and memory-related genes ([6]; TGFBR1 blockade alone, Dysf. CD8+ T cells, day 28): restored substantial expression levels
- ACVR1 and ACVR2A expression ([6]; normalized RNA levels, chronic stimulation): increased expression

Compound: Brc1ccc(CSc2nc3ccccc3o2)cc1 [SB4, 2-[[(4-Bromophenyl)methyl]thio]benzoxazole]
- dysfunctional CD8+ T cell responses during anti-PD-L1 treatment [1]: did not improve
- expression levels of terminal dysfunction molecules ([2]; in RepSox-treated Dysf. CD8+ T cells): further reducing
- effector function of Dysf. CD8+ T cells [2, 8]: not sufficient to restore
- expression levels of dysfunction-related molecules (PD-1, LAG3, CD101, CD103) [2, 8]: significantly reduced
- effector cytokine production ([2]; sorted most dysfunctional subset, added to RepSox): further enhanced
- tumor control [3]: modest tumor control
- DNA methylation patterns in Dysf. CD8+ T cells ([5]; combined with RepSox): more pronounced
- expression of genes regulating T cell co-stimulation, chemotaxis and stemness (CD28, FOSB, FCGR3A, CXCL8, POU2F2) ([6]; Reprog.II versus Reprog.I): re-activated expression
- expression of exhaustion-associated molecules (PD-1, LAG3, CD39, CD103, CD101) ([7]; day 21): reducing the expression
- numbers of persistently stimulated CD8+ T cells ([7]; day 21): rescued significantly higher numbers
- proliferation activity (Ki67) ([7]; day 21): without increasing
- polyfunctionality ([7]; day 21, treatment day 7-21, after PMA/Ionomycin): significantly increased
